Test results published in patent US10660789B2, “1,4-dihydropyridine derivatives with HSP modulating activity” (Richter Gedeon NYRT., priority 2011, dated 2020).
Where a name gives a salt, the structure may show the parent alone.

Test system: other Hsps
Assay: Other in vitro HSP modulating effects (Table 3)
Format: cell-based, mouse and human
Set-up: key: +: co-inducing activity; −: silencing activity; 0: with the experimental methods applied no other HSP modulating effects could be identified
Experimental: The Hsp co-inducing effect of the compounds on stress response was tested on B16 mouse melanoma and SHSY5Y human neuroblastoma cell lines stably transfected with Hsp promoter probing plasmids. This kind of promoter probing, using the promoter region of a given gene conjugated with fluorescent protein is used as a best and fastest test system for finding drugs which modulate the activity of the gene followed by the given promoter (Wyshocka et al., Mol. Cel. Biochem. 215:153-156, 2000).
Reporter plasmids, containing the Hsp70 and/or Hsp25 promoter conjugated to either YFP or GFP (yellow or green fluorescent protein), were stably transfected into the cells and the expression of YFP or GFP was followed by flow cytometry. Cells were either kept at 37° C. or exposed to heat shock at 42° C. for 1 hour followed by a 16 hour recovery period at 37° C. in the presence or absence of different concentrations of the test compound. After recovery the expression of YFP or GFP which is in straight correlation with the promoter activity of Hsp70 or Hsp27 genes was followed by measuring the fluorescence intensity of the cells by flow cytometry. Fluorescence intensity is in straight correlation with the amount of fluorescent protein (GFP or YFP) produced under the control of hsp promoter. The mean fluorescence intensity of YFP or GFP produced is shown as “Hsp promoter activity”.
Cells were homogenously distributed on 6-well plates in 1×10^5 cells/well density. B16-pHsp25-GFP and B16-pHsp70-YFP melanoma cells were grown in RPMI-1640 medium supplemented with 10% Fetal bovine serum (FBS), penicillin (200 units/ml), streptomycin (200 μg/ml) and 2 mM L-Glutamine. For maintaining the SH-SY5Y-pHsp25-GFP and SH-SY5YpHsp70-YFP neuroblastoma cell lines Dulbecco's modified Eagle's medium (DMEM-F-12) containing 10% FBS, 2 mM L-Glutamine, penicillin (200 units/ml), streptomycin (200 μg/ml) and MEM non-essential amino acids were used. Before the treatments both cell lines were incubated at 37° C. in a saturated humidity atmosphere containing 95% air and 5% CO2. After 24 h incubation cells were pretreated with compounds of the invention in four different concentrations (usually in 3; 10; 20 and 50 μM) 30 min before the heat shock at 42° C. for 1 h and then incubated further at 37° C. for 16 h (recovery period). After this procedure cells were trypsinized and suspensed in 500 μl serum-free DMEM-F12 medium. The changes in cells' fluorescence were detected using BD FACSCalibur flow cytometer.
SY-SY5Y and B16 cells were extracted in NP-40 lysis buffer (PBS pH 7.4, 1% protease inhibitor coctail and 1% Triton X-100). The cell extracts were then constantly agitated at 4° C. for 2 h. The cell extracts were centrifuged at 12000×g for 30 min and supernatants were saved. After the protein concentration measurement 15 μg of total protein was separated by sodium dodecyl sulfate-polyacrylamide gel electrophoresis (SDS-PAGE) under reducing conditions according to the method of Laemmli. Proteins were blotted onto PVDF membrane. The blot was incubated overnight at 4° C. in the presence of mouse α-Hsp25, α-Hsp70, α-Hsp60 és α-Hsp90 monoclonal antibodies diluted in PBS. Then, the membrane was washed three times in PBS-0.05% Tween and incubated for 1 h in peroxidase-conjugated anti-mouse IgG antibody diluted 1:50000 in PBS containing 3% non-fat dry milk. The immune complexes were detected with chemo-luminescent substrate of peroxidase according to the supplier's instructions. Images taken from the membranes were analyzed using AlphaEase FC software.

| SMILES | Other in vitro effects |
| --- | --- |
| COC(=O)C1=C(C)N(C)C(C)=C(C(=O)OC)C1c1ccc(Cl)cc1 [Example 4, Dimethyl 1,2,6-trimethyl-4-(4-chlorophenyl)-1,4-dihydropyridine-3,5-dicarboxylate] | 0 |
| COC(=O)C1=C(C)N(C)C(CN2CCc3ccccc3C2)=C(C(=O)OC)C1c1ccc(C(F)(F)F)cc1.Cl (centres unmarked) [Example 49, Dimethyl 2-(1,2,3,4-tetrahydro-1H-isoquinolin-2-ylmethyl)-1,6-dimethyl-4-(4-trifluoromethylphenyl)-1,4-dihydropyridine-3,5-dicarboxylate hydrochloride] | 0 |
| COC(=O)C1=C(CCN2CCN(C)CC2)N(C)C(CCN2CCN(C)CC2)=C(C(=O)OC)C1c1ccc(C(F)(F)F)cc1 [Example 16, Dimethyl 1-methyl-2,6-bis-[2-(4-methyl-piperazin-1-yl)-ethyl]-4-(4-trifluoromethylphenyl)-1,4-dihydropyridine-3,5-dicarboxylate hydrochloride] | 0 |
| COC(=O)C1=C(C)N(C)C(C)=C(C(=O)OC)C1c1ccc(OC)cc1 [Example 6, Dimethyl 1,2,6-trimethyl-4-(4-methoxyphenyl)-1,4-dihydropyridine-3,5-dicarboxylate] | 0 |

Test system: not given
Assay: not given

| melting point | SMILES |
| --- | --- |
| 179 to 180 °C | COC(=O)C1=C(C)N(C)C(C)=C(C(=O)OC)C1c1ccc(Cl)cc1 [Example 4, Dimethyl 1,2,6-trimethyl-4-(4-chlorophenyl)-1,4-dihydropyridine-3,5-dicarboxylate] |
| 261 to 265 °C | COC(=O)C1=C(CCN(C)C)N(C)C(CCN(C)C)=C(C(=O)OC)C1c1cc(F)cc(F)c1 (as salt: hydrochloride) [Example 25, Dimethyl 4-(3,5-Difluorophenyl)-2,6-bis-(2-dimethylaminoethyl)-1-methyl-1,4-dihydropyridine-3,5-dicarboxylate dihydrochloride] |
| 215 to 216 °C | COC(=O)C1=C(C#N)N(C)C(CCN(C)C)=C(C(=O)OC)C1c1ccc(C(F)(F)F)cc1.Cl (centres unmarked) |
| 152 to 153 °C | CC1=C(C(=O)O)C(c2ccc(C(F)(F)F)cc2)C(C(=O)O)=C(C)N1C [Example 36, 1,2,6-Trimethyl-4-(4-trifluoromethylphenyl)-1,4-dihydropyridine-3,5-dicarboxylic acid] |
| 210 to 211 °C | COC(=O)C1=C(CCN(C)C)N(C)C(CCN2CCc3cc(OC)c(OC)cc3C2)=C(C(=O)OC)C1c1ccc(C(F)(F)F)cc1 (centres unmarked) (as salt: hydrochloride) [Example 42, Dimethyl 2-[2-(6,7-dimethoxy-1,2,3,4-tetrahydroisoquinolin-2-yl)-ethyl]-6-(2-dimethylamino-ethyl)-1-methyl-4-(4-trifluoromethylphenyl)-1,4-dihydropyridine-3,5-dicarboxylate dihydrochloride] |
| 176 to 178 °C | COC(=O)C1=C(C)N(C)C(C)=C(C(=O)OC)C1c1ccc(C)cc1 [Example 5, Dimethyl 1,2,6-trimethyl-4-(4-methylphenyl)-1,4-dihydropyridine-3,5-dicarboxylate] |
| 128 to 130 °C | COC(=O)C1=C(C)N(C)C(C)=C(C(=O)OC(C)(C)C)C1c1ccc(C(F)(F)F)cc1 (centres unmarked) [Example 29, 1,2,6-Trimethyl-4-(4-trifluoromethylphenyl)-1,4-dihydropyridine-3,5-dicarboxylic acid 3-tert-butyl ester 5-methyl ester] |
| 171 to 173 °C | COC(=O)C1=C(C)N(C)C(CCN2CCOCC2)=C(C(=O)OC)C1c1ccccc1Cl.Cl (centres unmarked) |
| 150 to 155 °C | COC(=O)C1=C(C)N(C)C(C)=C(C(=O)O)C1c1ccc(C(F)(F)F)cc1 (centres unmarked) [Example 35, 1,2,6-Trimethyl-4-(4-trifluoromethylphenyl)-1,4-dihydropyridine-3,5-dicarboxylic acid monomethyl ester] |
| 210 to 215 °C | COC(=O)C1=C(CCN2CCN(C)CC2)N(C)C(CCN2CCN(C)CC2)=C(C(=O)OC)C1c1ccccc1Cl (as salt: hydrochloride) |
| 241 to 245 °C | COC(=O)C1=C(CCN(C)C)N(C)C(CCN(C)C)=C(C(=O)OC)C1c1ccccc1Cl (as salt: hydrochloride) [Example 22, Dimethyl 4-(2-chorophenyl)-2,6-bis-(2-dimethylaminoethyl)-1-methyl-1,4-dihydropyridine-3,5-dicarboxylate dihydrochloride] |
| 188 to 193 °C | COC(=O)C1=C(C)N(C)C(CCN2CCOCC2)=C(C(=O)OC)C1c1ccc(C(F)(F)F)cc1.Cl (centres unmarked) |
| 190 to 192 °C | COC(=O)C1=C(C)N(C)C(CN2CCCCC2)=C(C(=O)OC)C1c1ccc(C(F)(F)F)cc1.Cl (centres unmarked) |
| 218 to 219 °C | COC(=O)C1=C(C)N(C)C(CCN2CCCC2)=C(C(=O)OC)C1c1ccc(C(F)(F)F)cc1.Cl (centres unmarked) |
| 247 to 249 °C | COC(=O)C1=C(CCN(C)C)N(C)C(CCN2CCCCC2)=C(C(=O)OC)C1c1ccc(C(F)(F)F)cc1 (centres unmarked) (as salt: hydrochloride) [Example 30, Dimethyl 2-(2-dimethylamino-ethyl)-1-methyl-6-(2-piperidin-1-yl-ethyl)-4-(4-trifluoromethylphenyl)-1,4-dihydropyridine-3,5-dicarboxylate dihydrochloride] |
| 188 to 193 °C | COC(=O)C1=C(CCN2CCCC2)N(C)C(CCN2CCCC2)=C(C(=O)OC)C1c1ccccc1Cl (as salt: hydrochloride) [Example 19, Dimethyl 4-(2-chlorophenyl)-1-methyl-2,6-bis-(2-pyrrolidin-1-yl-ethyl)-1,4-dihydropyridine-3,5-dicarboxylate dihydrochloride] |
| 195 to 200 °C | COC(=O)C1=C(CCN2CCN(C)CC2)N(C)C(CCN2CCN(C)CC2)=C(C(=O)OC)C1c1ccc(C(F)(F)F)cc1 (as salt: hydrochloride) [Example 16, Dimethyl 1-methyl-2,6-bis-[2-(4-methyl-piperazin-1-yl)-ethyl]-4-(4-trifluoromethylphenyl)-1,4-dihydropyridine-3,5-dicarboxylate hydrochloride] |
| 154 to 155 °C | COC(=O)C1=C(C)N(C)C(C)=C(C(=O)OC)C1c1ccccc1Cl [Example 18, Dimethyl 4-(2-chlorophenyl)-1,2,6-trimethyl-1,4-dihydropyridine-3,5-dicarboxylate] |
| 182 to 185 °C | COC(=O)C1=C(C)N(C)C(CN2CCCC2)=C(C(=O)OC)C1c1ccc(C(F)(F)F)cc1.Cl (centres unmarked) |
| 92 to 94 °C | COC(=O)C1=C(C)N(C)C(C)=C(C(=O)OC(C)C)C1c1ccc(C(F)(F)F)cc1 (centres unmarked) [Example 28, 1,2,6-Trimethyl-4-(4-trifluoromethylphenyl)-1,4-dihydropyridine-3,5-dicarboxylic acid 3-isopropyl ester 5-methyl ester] |
| 173 to 175 °C | COC(=O)C1=C(C#N)N(C)C(CN2CCCC2)=C(C(=O)OC)C1c1ccc(C(F)(F)F)cc1.Cl (centres unmarked) |
| 202 to 203 °C | COC(=O)C1=C(C)N(C)C(CCN2CCc3ccccc3CC2)=C(C(=O)OC)C1c1ccc(C(F)(F)F)cc1.O=C(O)/C=C/C(=O)O (centres unmarked) |
| 175 to 177 °C | COC(=O)C1=C(C)N(C)C(CN2CCc3ccccc3C2)=C(C(=O)OC)C1c1ccc(C(F)(F)F)cc1.Cl (centres unmarked) [Example 49, Dimethyl 2-(1,2,3,4-tetrahydro-1H-isoquinolin-2-ylmethyl)-1,6-dimethyl-4-(4-trifluoromethylphenyl)-1,4-dihydropyridine-3,5-dicarboxylate hydrochloride] |
| 247 to 248 °C | COC(=O)C1=C(CCN(C)C)N(C)C(CCN2CCOCC2)=C(C(=O)OC)C1c1ccc(C(F)(F)F)cc1 (centres unmarked) (as salt: hydrochloride) [Example 31, Dimethyl 2-(2-dimethylamino-ethyl)-1-methyl-6-(2-morpholin-1-yl-ethyl)-4-(4-trifluoromethylphenyl)-1,4-dihydropyridine-3,5-dicarboxylate dihydrochloride] |
| 163 to 164 °C | COC(=O)C1=C(C)N(C)C(C)=C(C(=O)OC)C1c1ccc(OC)cc1 [Example 6, Dimethyl 1,2,6-trimethyl-4-(4-methoxyphenyl)-1,4-dihydropyridine-3,5-dicarboxylate] |
